According to ChEMBL document CHEMBL1201862, “PubChem BioAssay data set” (2004):
The source made the active and inactive calls.

Key:
[1] = viability inhibitors of stage V gametocytes – luminescence, dose response (AID 1117278); type: functional, cell-based;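 further: gametocytes exposed to compound for 24 hours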
[2] = viability loss in human Jurkat cells – cell-based, luminescence, cytotoxicity control for P. falciparum gametocyte viability project, dose response (AID 1117277); type: functional;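 further: potency reflects loss of cellular ATP meaning fewer viable cells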
[3] = biological target: T1, Carboxy-terminal domain RNA polymerase II polypeptide A small phosphatase 1 (Homo sapiens, UniProt Q9GZU7); test: CTDSP1 inhibitors, concentration-response, biochemical, absorbance readout, ultra-high-throughput screen actives (AID 540297); type: functional
T1 sequence (Q9GZU7 whole entry): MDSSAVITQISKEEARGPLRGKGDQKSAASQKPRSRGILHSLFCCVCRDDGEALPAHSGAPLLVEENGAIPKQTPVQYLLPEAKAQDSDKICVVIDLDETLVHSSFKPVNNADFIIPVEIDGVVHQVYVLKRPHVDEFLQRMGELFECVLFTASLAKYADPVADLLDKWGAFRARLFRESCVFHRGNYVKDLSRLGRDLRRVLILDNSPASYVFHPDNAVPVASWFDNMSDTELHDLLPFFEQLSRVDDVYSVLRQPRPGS

[4] = biological target: T2, Low molecular weight phosphotyrosine protein phosphatase (Homo sapiens, UniProt P24666); type: functional; settings: read-out: IC50_Mean;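 further: Dose-response confirmation assay measuring inhibition of LMPTP enzyme activity by fluorescence intensity read-out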
T2 sequence (P24666 whole entry): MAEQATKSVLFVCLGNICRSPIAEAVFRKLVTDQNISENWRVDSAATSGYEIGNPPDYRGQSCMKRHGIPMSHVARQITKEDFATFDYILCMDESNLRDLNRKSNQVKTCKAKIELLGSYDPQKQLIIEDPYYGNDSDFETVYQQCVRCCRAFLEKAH

[5] = biological target: NAD-dependent protein deacylase sirtuin-5, mitochondrial (Homo sapiens, UniProt Q9NXA8); test: sirtuin-5 deacylation blockers, concentration series – biochemical, fluorescence imaging, cherry-pick, set 5, dose response (AID 720591);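 further: desuccinylation of succinyl peptide AMC substrate read as fluorescence after trypsin release; potency of inhibitors that lower fluorescence and may act on trypsin instead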
Chain of NAD-dependent protein deacylase sirtuin-5, mitochondrial (Q9NXA8 whole entry): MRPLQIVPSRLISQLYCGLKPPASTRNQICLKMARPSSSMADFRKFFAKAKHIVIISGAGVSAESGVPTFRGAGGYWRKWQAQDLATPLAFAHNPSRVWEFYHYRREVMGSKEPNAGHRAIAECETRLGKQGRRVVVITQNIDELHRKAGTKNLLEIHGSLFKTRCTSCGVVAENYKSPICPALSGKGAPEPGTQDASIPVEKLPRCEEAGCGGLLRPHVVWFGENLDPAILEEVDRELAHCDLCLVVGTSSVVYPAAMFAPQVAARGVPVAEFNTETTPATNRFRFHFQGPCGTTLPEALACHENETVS

[6] = biological target: Endoplasmic reticulum aminopeptidase 1 (Homo sapiens, UniProt Q9NZ08); test: inhibition of human ERAP1 enzyme activity – biochemical, cherry-pick, set 2, plate reader, dose response (AID 743314)
Chain of Endoplasmic reticulum aminopeptidase 1 (Q9NZ08 whole entry): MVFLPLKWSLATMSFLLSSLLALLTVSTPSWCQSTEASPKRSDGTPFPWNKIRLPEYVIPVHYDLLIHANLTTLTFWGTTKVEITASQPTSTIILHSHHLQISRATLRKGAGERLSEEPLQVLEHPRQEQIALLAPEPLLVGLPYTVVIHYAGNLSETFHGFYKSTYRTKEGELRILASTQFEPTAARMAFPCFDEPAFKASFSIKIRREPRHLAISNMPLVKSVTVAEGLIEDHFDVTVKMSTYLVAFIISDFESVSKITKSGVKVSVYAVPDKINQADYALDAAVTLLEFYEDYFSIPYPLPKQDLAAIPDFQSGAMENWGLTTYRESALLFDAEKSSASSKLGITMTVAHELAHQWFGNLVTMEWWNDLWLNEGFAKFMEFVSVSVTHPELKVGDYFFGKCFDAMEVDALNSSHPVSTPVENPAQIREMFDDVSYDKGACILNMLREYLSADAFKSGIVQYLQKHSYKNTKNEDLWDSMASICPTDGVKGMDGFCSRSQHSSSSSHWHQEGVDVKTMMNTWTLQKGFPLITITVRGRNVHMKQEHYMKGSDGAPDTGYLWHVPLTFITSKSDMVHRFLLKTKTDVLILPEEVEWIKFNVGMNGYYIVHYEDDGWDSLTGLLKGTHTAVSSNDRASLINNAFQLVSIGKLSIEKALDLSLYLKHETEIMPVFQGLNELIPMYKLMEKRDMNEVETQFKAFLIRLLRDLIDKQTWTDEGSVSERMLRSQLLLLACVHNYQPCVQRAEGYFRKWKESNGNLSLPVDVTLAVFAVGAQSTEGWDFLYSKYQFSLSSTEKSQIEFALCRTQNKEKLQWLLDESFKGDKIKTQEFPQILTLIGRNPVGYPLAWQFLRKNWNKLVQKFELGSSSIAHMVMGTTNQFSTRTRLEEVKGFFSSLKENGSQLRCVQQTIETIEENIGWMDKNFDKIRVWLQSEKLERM

[7] = biological target: Diphosphomevalonate decarboxylase (Streptococcus pneumoniae serotype 2 (strain D39 / NCTC 7466), UniProt Q9FD53); test: diphosphomevalonate decarboxylase inhibitor confirmation – biochemical, cuvette format, coupled NADH fluorescence (AID 1028); type: functional
Chain of Diphosphomevalonate decarboxylase (Q9FD53 whole entry): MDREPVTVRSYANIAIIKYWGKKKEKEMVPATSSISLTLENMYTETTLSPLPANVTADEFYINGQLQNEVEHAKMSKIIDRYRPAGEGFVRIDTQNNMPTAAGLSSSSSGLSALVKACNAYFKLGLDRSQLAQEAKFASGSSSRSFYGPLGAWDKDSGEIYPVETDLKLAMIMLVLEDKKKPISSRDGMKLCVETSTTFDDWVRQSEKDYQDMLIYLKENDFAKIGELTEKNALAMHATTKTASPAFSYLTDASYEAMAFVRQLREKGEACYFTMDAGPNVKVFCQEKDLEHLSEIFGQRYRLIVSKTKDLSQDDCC

[8] = biological target: T3, Mannose-6-phosphate isomerase (Homo sapiens, UniProt P34949); test: MPI inhibition at elevated mannose 6-phosphate – biochemical, fluorescence intensity, high mannose 6-phosphate, primary screen (AID 1220)
T3 sequence (P34949 whole entry): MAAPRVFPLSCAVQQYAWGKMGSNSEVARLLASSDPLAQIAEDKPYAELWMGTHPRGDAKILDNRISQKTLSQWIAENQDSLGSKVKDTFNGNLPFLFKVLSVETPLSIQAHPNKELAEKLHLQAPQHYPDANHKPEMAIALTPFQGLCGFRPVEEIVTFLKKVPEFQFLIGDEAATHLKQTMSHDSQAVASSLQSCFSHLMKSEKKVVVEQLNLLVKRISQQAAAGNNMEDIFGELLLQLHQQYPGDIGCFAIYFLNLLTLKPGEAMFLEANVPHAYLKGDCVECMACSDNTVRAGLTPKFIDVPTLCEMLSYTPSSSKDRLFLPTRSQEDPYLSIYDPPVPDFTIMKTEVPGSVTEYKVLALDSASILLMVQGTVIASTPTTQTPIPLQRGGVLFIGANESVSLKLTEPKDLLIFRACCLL

[9] = biological target: E3 ubiquitin-protein ligase Mdm2 (Homo sapiens, UniProt Q00987); test: MDM2-luc reporter signal enhancers, multi-concentration potency testing, MDM2 ubiquitin-protein ligase inhibitor program, whole-cell format, luminescence detection, 384-well microplate (AID 1394); type: functional;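 further: MDM2 E3 inhibitors raise luminescence so EC50 is for signal enhancement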
Chain of E3 ubiquitin-protein ligase Mdm2 (Q00987 whole entry): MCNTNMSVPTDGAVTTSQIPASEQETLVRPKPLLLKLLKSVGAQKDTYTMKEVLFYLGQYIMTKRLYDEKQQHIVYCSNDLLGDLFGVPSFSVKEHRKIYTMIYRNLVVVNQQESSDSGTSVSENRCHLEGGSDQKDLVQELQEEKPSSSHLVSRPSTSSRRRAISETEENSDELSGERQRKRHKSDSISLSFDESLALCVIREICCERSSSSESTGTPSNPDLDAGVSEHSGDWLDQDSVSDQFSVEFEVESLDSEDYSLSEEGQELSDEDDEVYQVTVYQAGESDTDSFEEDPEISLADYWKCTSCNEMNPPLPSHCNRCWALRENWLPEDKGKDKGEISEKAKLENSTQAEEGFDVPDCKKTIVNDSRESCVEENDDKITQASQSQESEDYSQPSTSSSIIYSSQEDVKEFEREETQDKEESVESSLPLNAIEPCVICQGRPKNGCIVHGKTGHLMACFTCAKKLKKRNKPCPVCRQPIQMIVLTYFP

Vero = test: mammalian cell viability reduction – secondary assay, cytotoxicity control for West Nile virus antiviral project, dose response (AID 1650); type: functional; settings: Chlorocebus sabaeus
[10] = Luminescence-based cell-based high throughput dose response assay to identify activators of the DAF-12 from the parasite S. stercoralis (ssDAF-12).; type: functional
[11] = biological target: T4, Oxysterols receptor LXR-beta (Homo sapiens, UniProt P55055); test: LXR agonists, Gal4 luciferase reporter, dose response, counter-screen for ssDAF-12 agonist project, cell-based, luminescence, HEK293, S. stercoralis campaign (AID 720737); type: functional; settings: read-out: IC50 (the source's name)
T4 sequence (P55055 whole entry): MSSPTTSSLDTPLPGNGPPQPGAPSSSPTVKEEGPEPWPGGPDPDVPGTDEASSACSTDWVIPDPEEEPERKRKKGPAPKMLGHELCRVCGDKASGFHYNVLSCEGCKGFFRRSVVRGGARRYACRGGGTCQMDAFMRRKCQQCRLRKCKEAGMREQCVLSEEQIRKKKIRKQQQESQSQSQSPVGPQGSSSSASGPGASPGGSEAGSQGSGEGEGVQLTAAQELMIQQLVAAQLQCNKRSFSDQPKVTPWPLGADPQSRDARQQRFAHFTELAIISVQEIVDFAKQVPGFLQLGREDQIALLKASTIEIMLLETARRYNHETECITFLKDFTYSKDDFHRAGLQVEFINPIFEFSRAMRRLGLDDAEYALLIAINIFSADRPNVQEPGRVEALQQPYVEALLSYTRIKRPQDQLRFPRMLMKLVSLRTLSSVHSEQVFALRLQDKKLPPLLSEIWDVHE

[12] = potency of ADAM10 substrate cleavage blockers – biochemical, QFRET, dose response (AID 743254);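 further: ADAM10 enzyme with the DM2 quenched FRET peptide as substrate; EDANS fluorescence gain as the protease cuts the substrate; inhibitor potency against ADAM10 proteolytic activity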
[13] = biological target: Disintegrin and metalloproteinase domain-containing protein 17 (Homo sapiens, UniProt P78536); test: inhibition of ADAM17 substrate cleavage – biochemical, quenched FRET substrate, counter-screen for ADAM10 exosite inhibitor project, dose response (AID 743253)
[14] = HIV-1 Vif–A3G interaction blockers – biochemical, TR-FRET, GST-Vif 1-94, biotin-A3G peptide, dose response retest, primary screen (AID 1117319); type: functional;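 further: TR-FRET signal of purified GST-Vif binding a biotinylated A3G peptide; inhibitors lower the FRET signal by blocking Vif and A3G binding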
Fatty acid synthase [15] = biological target: T5, Fatty acid synthase (Homo sapiens, UniProt P49327); test: inhibition of human FAS-TE enzyme activity – biochemical, endpoint fluorescence intensity, uHTS hits, dose response (AID 624327); type: functional;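 further: fluorescence from hydrolysis of an O-methyl fluorescein acyl ester substrate by the enzyme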
T5 sequence (P49327 whole entry): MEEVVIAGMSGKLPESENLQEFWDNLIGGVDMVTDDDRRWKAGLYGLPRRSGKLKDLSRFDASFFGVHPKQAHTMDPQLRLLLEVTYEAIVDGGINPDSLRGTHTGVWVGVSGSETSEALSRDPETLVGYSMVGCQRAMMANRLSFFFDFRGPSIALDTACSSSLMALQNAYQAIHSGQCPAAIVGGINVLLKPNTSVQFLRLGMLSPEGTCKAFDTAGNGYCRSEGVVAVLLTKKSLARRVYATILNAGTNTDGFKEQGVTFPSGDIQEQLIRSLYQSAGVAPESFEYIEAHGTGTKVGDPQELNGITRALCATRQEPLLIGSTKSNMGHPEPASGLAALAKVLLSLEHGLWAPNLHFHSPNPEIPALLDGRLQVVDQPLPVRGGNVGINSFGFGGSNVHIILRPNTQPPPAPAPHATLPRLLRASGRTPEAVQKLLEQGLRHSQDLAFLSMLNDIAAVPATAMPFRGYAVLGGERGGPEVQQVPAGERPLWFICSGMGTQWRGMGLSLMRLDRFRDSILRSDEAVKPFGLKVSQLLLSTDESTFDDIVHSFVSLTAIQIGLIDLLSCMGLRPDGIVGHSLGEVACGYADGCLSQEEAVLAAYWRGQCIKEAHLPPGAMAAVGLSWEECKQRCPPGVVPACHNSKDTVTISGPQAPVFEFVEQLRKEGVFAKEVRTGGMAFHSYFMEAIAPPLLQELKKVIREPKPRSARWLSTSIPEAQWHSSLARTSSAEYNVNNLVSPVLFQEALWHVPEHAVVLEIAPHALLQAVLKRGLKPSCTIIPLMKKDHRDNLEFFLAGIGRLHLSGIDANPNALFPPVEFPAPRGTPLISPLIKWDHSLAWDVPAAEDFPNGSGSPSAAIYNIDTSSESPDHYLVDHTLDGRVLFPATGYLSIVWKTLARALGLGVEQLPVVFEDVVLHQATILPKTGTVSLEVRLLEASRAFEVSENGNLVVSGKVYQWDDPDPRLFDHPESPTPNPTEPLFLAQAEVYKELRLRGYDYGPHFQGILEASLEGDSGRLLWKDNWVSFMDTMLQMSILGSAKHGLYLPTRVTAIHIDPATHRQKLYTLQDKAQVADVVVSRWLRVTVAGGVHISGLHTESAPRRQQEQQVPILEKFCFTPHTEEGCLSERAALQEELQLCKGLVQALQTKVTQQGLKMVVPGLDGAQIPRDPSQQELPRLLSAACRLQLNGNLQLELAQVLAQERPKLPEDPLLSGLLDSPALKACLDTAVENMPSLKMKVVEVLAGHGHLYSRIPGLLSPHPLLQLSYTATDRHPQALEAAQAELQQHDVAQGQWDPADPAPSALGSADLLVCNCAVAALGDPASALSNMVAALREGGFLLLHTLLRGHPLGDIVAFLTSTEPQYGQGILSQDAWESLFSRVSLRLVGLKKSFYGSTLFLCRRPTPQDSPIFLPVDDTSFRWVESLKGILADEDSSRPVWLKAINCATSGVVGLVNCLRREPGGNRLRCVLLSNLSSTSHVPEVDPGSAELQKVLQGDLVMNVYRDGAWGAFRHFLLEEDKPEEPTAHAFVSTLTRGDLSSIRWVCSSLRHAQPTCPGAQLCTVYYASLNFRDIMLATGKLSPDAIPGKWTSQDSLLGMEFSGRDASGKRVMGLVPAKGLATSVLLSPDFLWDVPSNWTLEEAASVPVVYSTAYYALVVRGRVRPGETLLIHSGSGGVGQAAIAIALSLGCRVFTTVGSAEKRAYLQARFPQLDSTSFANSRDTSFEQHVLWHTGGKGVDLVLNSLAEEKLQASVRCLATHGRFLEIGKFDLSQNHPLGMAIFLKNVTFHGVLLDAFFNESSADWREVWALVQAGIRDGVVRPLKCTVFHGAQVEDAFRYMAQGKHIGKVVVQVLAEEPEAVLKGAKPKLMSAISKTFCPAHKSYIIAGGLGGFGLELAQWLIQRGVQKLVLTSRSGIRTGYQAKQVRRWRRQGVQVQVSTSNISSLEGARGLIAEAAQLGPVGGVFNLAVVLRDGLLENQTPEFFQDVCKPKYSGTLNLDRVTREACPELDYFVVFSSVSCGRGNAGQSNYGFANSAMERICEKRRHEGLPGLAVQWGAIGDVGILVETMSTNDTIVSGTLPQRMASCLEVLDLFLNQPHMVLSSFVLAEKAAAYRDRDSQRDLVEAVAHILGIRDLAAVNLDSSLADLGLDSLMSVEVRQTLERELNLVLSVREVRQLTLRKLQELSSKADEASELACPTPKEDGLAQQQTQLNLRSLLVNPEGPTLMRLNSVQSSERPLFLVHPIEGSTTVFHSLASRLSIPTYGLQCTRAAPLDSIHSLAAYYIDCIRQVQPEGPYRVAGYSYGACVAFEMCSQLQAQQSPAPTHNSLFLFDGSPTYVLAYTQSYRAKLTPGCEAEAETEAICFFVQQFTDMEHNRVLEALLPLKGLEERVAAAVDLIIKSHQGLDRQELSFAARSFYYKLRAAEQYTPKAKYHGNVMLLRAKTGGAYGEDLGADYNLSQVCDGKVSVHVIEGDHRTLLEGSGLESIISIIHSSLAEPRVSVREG

Fatty acid synthase [16] = biological target: T5, Fatty acid synthase; test: inhibition of human FAS-TE enzyme activity – biochemical, kinetic fluorescence intensity, dose response (AID 624326); type: functional;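 further: rate of fluorescence rise from hydrolysis of a fluorogenic O-methyl fluorescein ester substrate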

For `CCCn1c(SCC(=O)c2cc(OC)ccc2OC)nnc1-c1ccco1`, the IC50 [1] was > 109 µM (inactive) and the IC50 [2] was > 83.3 µM (inactive).

With `CCSc1nnc(NC(=O)CSc2sc3c(O)cc(=O)[nH]c3c2C#N)s1` the IC50 [3] was 3.21 µM (active), the IC50 [4] was 49.5 µM (inactive) and the AC50 [5] was > 30 µM (inactive).

In the case of `Cc1c(CC(=O)N2CCN(C(=O)C3COc4ccccc4O3)CC2)c(=O)oc2cc(O)c(Cl)cc12` (configuration not stated), the AC50 [6] is reported as 3.11 µM (active).

In the case of `O=C(NC1CC1)c1cccc(-n2sc3ccccc3c2=O)c1`, the IC50 [7] is reported as 20.4 µM (active).

With `On1c2c(c3c4nonc4ccc31)CCCC2` the IC50 [8] was > 50 µM (not active).

For `Cc1cc(OC(=O)c2ccccc2)c([N+](=O)[O-])c(O)n1`, the EC50 [9] was 0.01 µM (not active).

For `CCN(c1ccc(C)c(C)c1)S(=O)(=O)c1ccc2c(c1)CCN2C(=O)CCC(=O)O`, the IC50 [1] was > 109 µM (inactive) and the IC50 [2] was > 83.3 µM (inactive).

With `Cc1ccccc1NC(=O)c1cc(C(=O)c2cc(Cl)ccc2O)cn(-c2ccccc2C)c1=O` the CC50 (Vero) was 64.8 µM (active).

With `Cc1ccc(-c2cn3cccc(C)c3n2)cc1` the IC50 [10] was > 67.5 µM (inactive) and the EC50 [11] was > 67.5 µM (inactive).

For `Cc1ccc(C(=O)Nc2ccccc2C(=O)NCc2ccco2)cc1S(=O)(=O)N1CCCCC1`, the IC50 [12] was > 69.5 µM (inactive) and the IC50 [13] was > 69.5 µM (inactive).

In the case of `CC(=O)Cc1nsc(Nc2ccc3c(c2)OCCO3)n1`, the IC50 [14] is reported as > 100 µM (active).

For `O=C(NCCN1CCCC(O)C1)c1cc(COc2ccc(F)cc2Cl)on1` (configuration not stated), the AC50 [5] was > 30 µM (inactive).

With `CN1CCN(C(=O)c2ccc(-n3sc4ccccc4c3=O)cc2)CC1` the IC50 [7] was 25.8 µM (active).

For `COc1ccccc1-c1cc(SC)c(C#N)c(=O)o1`, the EC50 [9] was 11.1 µM (active), the IC50 (Fatty acid synthase [15]) was 15.3 µM (active) and the IC50 (Fatty acid synthase [16]) was 10.9 µM (active).
